In ChEMBL document CHEMBL5154828 (J Med Chem, 2022):
Calls of active or inactive are those of the source. The rule behind the calls is not given here.

Assays:
[1] = Drug concentration in rat uterus at 20 mg/kg, po measured after 2 hrs; assay type: ADME, organism-based; details: female, read-out: Ct
[2] = target: Estrogen receptor beta (Homo sapiens, UniProt Q92731); experiment: Antagonist activity at ERbeta expressed in HEK293/Gal4 cells incubated for 24 hrs in presence of di-arylpropionitrile by luciferase reporter gene assay
Sequence of Estrogen receptor beta (Q92731 whole entry, the tested form may be a part): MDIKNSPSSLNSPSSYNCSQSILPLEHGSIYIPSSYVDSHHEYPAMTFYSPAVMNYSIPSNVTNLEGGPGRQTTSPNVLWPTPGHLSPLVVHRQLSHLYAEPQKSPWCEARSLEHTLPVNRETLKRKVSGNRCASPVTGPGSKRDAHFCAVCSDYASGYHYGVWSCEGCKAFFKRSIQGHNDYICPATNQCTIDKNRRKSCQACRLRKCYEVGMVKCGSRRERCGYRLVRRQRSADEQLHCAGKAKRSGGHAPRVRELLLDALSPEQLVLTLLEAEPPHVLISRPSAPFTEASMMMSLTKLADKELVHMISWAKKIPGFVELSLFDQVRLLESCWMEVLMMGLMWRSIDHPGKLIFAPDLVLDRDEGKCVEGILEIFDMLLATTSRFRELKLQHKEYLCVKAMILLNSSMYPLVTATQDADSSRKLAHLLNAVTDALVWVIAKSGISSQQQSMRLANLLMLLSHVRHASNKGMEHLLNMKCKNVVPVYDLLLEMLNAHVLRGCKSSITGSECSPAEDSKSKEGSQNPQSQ

[3] = system: CAMA-1; experiment: Antiproliferative activity against human CAMA-1 cells assessed as inhibition of cell growth measured after 8 days by cell titre glo luminescence assay; assay type: functional, cell-based; details: time 8.0 day
[4] = Tmax in ICR mouse at 5 mg/kg, po measured up to 24 hrs by LC/MS/MS analysis; assay type: ADME, organism-based; details: in vivo
[5] = target: T1, Estrogen receptor (Homo sapiens) (UniProt P03372); experiment: Induction of ERalpha degradation in human MCF7 cells at 1 nM by Western blot analysis; assay type: cell-based; details: time 0.5-24 hrs, TDE = time-dependent effect
T1 sequence (whole entry): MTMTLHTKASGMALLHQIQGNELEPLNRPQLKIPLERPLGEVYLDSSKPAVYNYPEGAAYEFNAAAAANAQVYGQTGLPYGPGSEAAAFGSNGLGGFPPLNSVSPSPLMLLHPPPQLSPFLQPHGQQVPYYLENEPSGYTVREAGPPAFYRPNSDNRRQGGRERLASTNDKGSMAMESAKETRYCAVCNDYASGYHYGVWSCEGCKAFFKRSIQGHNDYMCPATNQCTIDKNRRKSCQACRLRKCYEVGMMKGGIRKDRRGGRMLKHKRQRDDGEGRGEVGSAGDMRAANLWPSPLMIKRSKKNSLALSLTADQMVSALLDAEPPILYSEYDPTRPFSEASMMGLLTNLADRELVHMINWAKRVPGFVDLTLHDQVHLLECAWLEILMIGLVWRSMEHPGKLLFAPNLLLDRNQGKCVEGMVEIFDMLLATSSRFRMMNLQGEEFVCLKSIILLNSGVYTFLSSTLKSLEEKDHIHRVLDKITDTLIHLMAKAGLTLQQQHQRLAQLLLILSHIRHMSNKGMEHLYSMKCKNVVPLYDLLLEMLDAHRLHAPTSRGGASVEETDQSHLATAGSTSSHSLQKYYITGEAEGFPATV

[6] = AUC (0 to t) in ICR mouse at 5 mg/kg, po measured up to 24 hrs by LC/MS/MS analysis; assay type: ADME, organism-based; design: time < 24 hrs, dose 5 mg/kg, route po; details: in vivo
[7] = Tmax in Sprague-Dawley rat at 10 mg/kg, po measured up to 24 hrs by LC/MS/MS analysis; assay type: ADME, organism-based; details: in vivo
[8] = Ratio of drug concentration in rat liver to plasma at 20 mg/kg, po measured after 2 hrs
[9] = Elimination half life in Sprague-Dawley rat at 10 mg/kg, po measured up to 24 hrs by LC/MS/MS analysis; assay type: ADME, organism-based; details: in vivo, read-out: beta t1/2 (converted)
[10] = Ratio of drug concentration in rat blood to plasma at 20 mg/kg, po measured after 2 hrs; details: blood and plasma
[11] = target: Estrogen receptor (Homo sapiens, UniProt P03372, Y537S); experiment: Antagonist activity at ERalpha Y537S mutant degradation in human SK-BR-3 cells incubated for 24 hrs in presence of beta-estradiol by luciferase gene assay; assay type: cell-based
Sequence of Estrogen receptor (Homo sapiens, UniProt P03372, Y537S) (P03372 whole entry Y537S): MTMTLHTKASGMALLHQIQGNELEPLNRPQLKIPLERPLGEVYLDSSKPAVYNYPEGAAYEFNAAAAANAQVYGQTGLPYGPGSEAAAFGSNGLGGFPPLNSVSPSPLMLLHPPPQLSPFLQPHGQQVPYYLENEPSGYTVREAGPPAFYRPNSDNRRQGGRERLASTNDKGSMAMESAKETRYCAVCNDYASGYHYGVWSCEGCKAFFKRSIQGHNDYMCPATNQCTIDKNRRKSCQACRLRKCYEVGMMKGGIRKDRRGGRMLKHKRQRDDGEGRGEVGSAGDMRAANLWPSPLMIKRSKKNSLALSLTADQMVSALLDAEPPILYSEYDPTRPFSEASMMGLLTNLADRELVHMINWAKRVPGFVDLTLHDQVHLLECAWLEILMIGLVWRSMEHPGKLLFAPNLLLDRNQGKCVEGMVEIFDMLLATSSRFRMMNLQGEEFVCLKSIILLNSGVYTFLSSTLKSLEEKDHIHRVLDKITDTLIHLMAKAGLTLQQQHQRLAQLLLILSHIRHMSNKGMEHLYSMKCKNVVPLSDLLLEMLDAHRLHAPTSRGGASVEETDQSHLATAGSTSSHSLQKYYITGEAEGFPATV

[12] = Ratio of drug concentration in rat brain to plasma at 20 mg/kg, po measured after 2 hrs
[13] = Elimination half life in ICR mouse at 2 mg/kg, iv measured up to 24 hrs by LC/MS/MS analysis; assay type: ADME, organism-based; details: in vivo, read-out: beta t1/2 (converted)
[14] = Ratio of drug concentration in rat ovary to plasma at 20 mg/kg, po measured after 2 hrs; details: female
[15] = Ratio of drug concentration in rat kidney to plasma at 20 mg/kg, po measured after 2 hrs
[16] = Cmax in ICR mouse at 2 mg/kg, iv measured up to 24 hrs by LC/MS/MS analysis; assay type: ADME, organism-based; design: dose 2 mg/kg, time < 24 hrs, route iv; details: in vivo
[17] = Drug concentration in rat blood at 20 mg/kg, po measured after 2 hrs; assay type: ADME, organism-based; details: whole blood, read-out: Ct
[18] = Drug concentration in rat kidney at 20 mg/kg, po measured after 2 hrs; assay type: ADME, organism-based; details: read-out: Ct
[19] = target: T1, Estrogen receptor (Homo sapiens); experiment: Induction of ERalpha degradation in human MDA-MB-361 cells incubated 24 hrs by Western blot analysis; assay type: cell-based; details: dose 0.1-1000 nM, DDE = dose-dependent effect
[20] = Cmax in Sprague-Dawley rat at 10 mg/kg, po measured up to 24 hrs by LC/MS/MS analysis; assay type: ADME, organism-based; design: time < 24 hrs, dose 10 mg/kg, route po; details: in vivo
[21] = Oral bioavailability in ICR mouse at 5 mg/kg measured up to 24 hrs by LC/MS/MS analysis; assay type: ADME, organism-based; details: in vivo
[22] = target: T1, Estrogen receptor (Homo sapiens); experiment: Induction of ERalpha degradation in human CAMA-1 cells incubated 24 hrs by Western blot analysis; assay type: cell-based; details: dose 0.1-1000 nM, DDE = dose-dependent effect
[23] = Ratio of drug concentration in rat breast to plasma at 20 mg/kg, po measured after 2 hrs
[24] = Drug concentration in rat breast at 20 mg/kg, po measured after 2 hrs; assay type: ADME, organism-based; details: read-out: Ct
[25] = system: BT-474; experiment: Antiproliferative activity against human BT-474 cells assessed as inhibition of cell growth measured after 7 days by cell titre glo luminescence assay; assay type: functional, cell-based; details: time 7.0 day
[26] = Cmax in ICR mouse at 5 mg/kg, po measured up to 24 hrs by LC/MS/MS analysis; assay type: ADME, organism-based; design: dose 5 mg/kg, time < 24 hrs, route po; details: in vivo
[27] = system: MCF7; experiment: Antitumor activity against tamoxifen-sensitive human MCF7 cells xenografted in athymic mouse assessed as reduction in tumor growth at 15 mg/kg, po qd measured after 21 days; details: 504 h, read-out: TGI
[28] = target: T1, Estrogen receptor (Homo sapiens); experiment: Induction of ERalpha degradation in human MCF7 cells at 5 uM incubated 24 hrs by Western blot analysis; assay type: cell-based
[29] = Drug concentration in rat brain at 20 mg/kg, po measured after 2 hrs; assay type: ADME, organism-based; details: read-out: Ct
[30] = Ratio of drug concentration in rat uterus to plasma at 20 mg/kg, po measured after 2 hrs; details: female
[31] = Drug concentration in rat plasma at 20 mg/kg, po measured after 2 hrs; assay type: ADME, organism-based
[32] = Elimination half life in ICR mouse at 5 mg/kg, po measured up to 24 hrs by LC/MS/MS analysis; assay type: ADME, organism-based; details: in vivo, read-out: beta t1/2 (converted)
[33] = Drug concentration in rat liver at 20 mg/kg, po measured after 2 hrs; assay type: ADME, organism-based; details: read-out: Ct
[34] = MRT in Sprague-Dawley rat at 10 mg/kg, po measured up to 24 hrs by LC/MS/MS analysis; assay type: ADME, organism-based; details: in vivo
[35] = Clearance in ICR mouse at 2 mg/kg, iv measured up to 24 hrs by LC/MS/MS analysis; assay type: ADME, organism-based; details: in vivo
[36] = target: Estrogen receptor (Homo sapiens, UniProt P03372, D538G); experiment: Antagonist activity at ERalpha D538G mutant degradation in human SK-BR-3 cells incubated for 24 hrs in presence of beta-estradiol by luciferase gene assay; assay type: cell-based
Sequence of Estrogen receptor (Homo sapiens, UniProt P03372, D538G) (P03372 whole entry D538G): as the sequence (P03372 whole entry Y537S) above, with S537Y, D538G counted along it

[37] = Antiproliferative activity against human MCF-7/TAMR-1 cells assessed as inhibition of cell growth measured after 8 days by cell titre glo luminescence assay; details: MCF-7/TAMR-1, 192 h
[38] = AUC (0 to t) in Sprague-Dawley rat at 10 mg/kg, po measured up to 24 hrs by LC/MS/MS analysis; assay type: ADME, organism-based; design: time < 24 hrs, dose 10 mg/kg, route po; details: in vivo

In the case of CC(F)(F)c1cc(Cl)ccc1-c1sc2c(ccc3[nH]ncc32)c1Oc1ccc(OC2CN(CCCF)C2)cc1, the concentration at 2 h [1] is reported as 2170 ng/mL, the IC50 [2] is reported as 2.3 nM and the Activity [3] is reported as “Active”. For the same compound, the Tmax [4] was 2.7 h, the Activity [5] was “Tde” and the AUC(0-t) at 24 h [6] was 7710 ng·h/mL. For the same compound, the Tmax [7] was 3.3 h, the Kp at 2 h [8] was 34.9 and the half-life [9] was 4.6 h. The blood plasma ratio at 2 h [10] was 0.8, the IC50 [11] was 10.3 nM and the Kp at 2 h [12] was 0.7. The half-life [13] was 4.6 h, the Kp at 2 h [14] was 7.3 and the Kp at 2 h [15] was 11.7. For the same compound, the Cmax [16] was 764 ng/mL, the concentration at 2 h [17] was 480 ng/mL and the concentration at 2 h [18] was 7100 ng/mL. The Activity [19] was “Dde”, the Cmax [20] was 340 ng/mL and the bioavailability [21] was 67%. The Activity [22] was “Dde”, the Kp at 2 h [23] was 4 and the concentration at 2 h [24] was 2410 ng/mL. For the same compound, the Activity [25] was “Active”, the Cmax [26] was 768 ng/mL and the inhibition in vivo at 15 mg/kg [27] was -17%. For the same compound, the Activity [28] was “Active”, the concentration at 2 h [29] was 442 ng/mL and the Kp at 2 h [30] was 3.6. It also gave a concentration at 2 h [31] of 609 ng/mL, a half-life [32] of 5.7 h and a concentration at 2 h [33] of 212000 ng/mL. For the same compound, the MRT [34] was 7 h, the clearance [35] was 7 mL/min/kg and the IC50 [36] was 16.1 nM. It also gave an IC50 [37] of 3.2 nM and an AUC(0-t) at 24 h [38] of 3180 ng·h/mL.
